Experimental data: ChEMBL document CHEMBL4371003, “Discovery of Novel Dual Mechanism of Action Src Signaling and Tubulin Polymerization Inhibitors (KX2-391 and KX2-361)” (J Med Chem, 2018)
pIC50, pKi: −log10 of the molar value.

Legend:
KM12 [1] = experiment: Antitumor activity against human KM12 cells; type: functional, cell-based
A549 = experiment: Antitumor activity against human A549 cells; type: functional, cell-based
NCI-H460 = experiment: Antitumor activity against human NCI-H460 cells; type: functional, cell-based
[2] = Inhibition of human c-SRC expressed in mouse NIH/3T3 cells assessed as reduction in BrdU incorporation after 24 hrs by ELISA
[3] = biological target: T1, Proto-oncogene tyrosine-protein kinase Src (Homo sapiens, UniProt P12931); experiment: Inhibition of human recombinant pp60c-src expressed in baculovirus infected Sf9 insect cells using poly(Glu,Tyr) 4:1 as substrate after 15 mins
T1 sequence (P12931 2-536 limits assumed): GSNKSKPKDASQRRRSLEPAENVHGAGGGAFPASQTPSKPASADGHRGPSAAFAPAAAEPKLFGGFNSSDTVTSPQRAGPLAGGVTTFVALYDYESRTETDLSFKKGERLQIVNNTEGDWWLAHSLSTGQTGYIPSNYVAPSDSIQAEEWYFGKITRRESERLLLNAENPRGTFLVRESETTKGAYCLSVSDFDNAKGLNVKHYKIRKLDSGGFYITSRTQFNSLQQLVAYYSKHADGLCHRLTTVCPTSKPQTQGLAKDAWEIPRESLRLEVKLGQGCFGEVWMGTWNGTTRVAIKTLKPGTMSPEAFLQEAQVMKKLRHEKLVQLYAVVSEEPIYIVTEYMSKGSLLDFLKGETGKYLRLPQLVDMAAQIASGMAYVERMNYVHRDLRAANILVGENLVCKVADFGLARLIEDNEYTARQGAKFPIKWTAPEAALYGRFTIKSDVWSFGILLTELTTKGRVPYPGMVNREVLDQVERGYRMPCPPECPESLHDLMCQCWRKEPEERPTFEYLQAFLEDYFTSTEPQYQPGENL

[4] = biological target: T1, Proto-oncogene tyrosine-protein kinase Src; experiment: Inhibition of human c-SRC expressed in mouse NIH/3T3 cells assessed as reduction in cell growth; type: cell-based
Insulin receptor [5] = biological target: T2, Insulin receptor (Homo sapiens, UniProt P06213); experiment: Non-competitive inhibition of human placental insulin receptor expressed in CHO cell membrane assessed as decrease in insulin-stimulated A2 phosphorylation preincubated for 15 mins followed by substrate addition and measured after 15 mins in presence of [gamma-32P]ATP by Dixon plot analysis; type: cell-based
T2 sequence (P06213 28-758 limits assumed): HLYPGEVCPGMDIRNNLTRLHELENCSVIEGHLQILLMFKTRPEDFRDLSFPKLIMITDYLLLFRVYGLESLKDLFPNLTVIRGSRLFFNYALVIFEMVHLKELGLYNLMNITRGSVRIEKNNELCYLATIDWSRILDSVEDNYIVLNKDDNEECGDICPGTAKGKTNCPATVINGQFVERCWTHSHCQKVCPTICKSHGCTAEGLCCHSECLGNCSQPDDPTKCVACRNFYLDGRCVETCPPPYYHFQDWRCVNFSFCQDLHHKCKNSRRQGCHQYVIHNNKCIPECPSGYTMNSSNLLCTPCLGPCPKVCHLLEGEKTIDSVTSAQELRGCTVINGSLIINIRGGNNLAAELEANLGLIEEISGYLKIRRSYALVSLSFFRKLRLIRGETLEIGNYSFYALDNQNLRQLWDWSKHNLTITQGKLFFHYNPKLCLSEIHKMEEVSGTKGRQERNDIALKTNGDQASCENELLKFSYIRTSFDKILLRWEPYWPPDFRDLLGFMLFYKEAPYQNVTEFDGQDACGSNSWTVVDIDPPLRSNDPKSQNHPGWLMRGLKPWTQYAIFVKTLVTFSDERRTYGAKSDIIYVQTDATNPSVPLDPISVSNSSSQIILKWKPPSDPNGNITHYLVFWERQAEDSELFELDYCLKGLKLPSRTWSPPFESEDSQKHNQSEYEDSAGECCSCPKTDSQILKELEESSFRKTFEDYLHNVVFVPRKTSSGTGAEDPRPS
T2 sequence (P06213 763-1382 limits assumed): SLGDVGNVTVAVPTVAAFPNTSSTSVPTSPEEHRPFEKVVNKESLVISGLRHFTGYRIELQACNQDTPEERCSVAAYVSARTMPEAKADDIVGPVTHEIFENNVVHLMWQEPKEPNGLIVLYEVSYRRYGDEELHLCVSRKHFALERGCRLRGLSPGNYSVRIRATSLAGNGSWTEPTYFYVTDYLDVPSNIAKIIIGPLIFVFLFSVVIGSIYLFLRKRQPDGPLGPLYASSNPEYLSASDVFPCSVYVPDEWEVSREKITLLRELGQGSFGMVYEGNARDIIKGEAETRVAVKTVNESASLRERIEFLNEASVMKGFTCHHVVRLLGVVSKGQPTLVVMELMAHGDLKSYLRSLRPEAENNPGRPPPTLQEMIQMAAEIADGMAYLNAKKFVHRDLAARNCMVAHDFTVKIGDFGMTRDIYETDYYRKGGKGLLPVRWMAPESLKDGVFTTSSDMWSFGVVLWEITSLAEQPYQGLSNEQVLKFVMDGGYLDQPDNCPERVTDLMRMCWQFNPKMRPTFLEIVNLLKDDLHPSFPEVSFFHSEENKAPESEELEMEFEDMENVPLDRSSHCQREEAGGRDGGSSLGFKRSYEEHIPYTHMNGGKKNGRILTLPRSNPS

Insulin receptor [6] = biological target: T2, Insulin receptor; experiment: Inhibition of human placental insulin receptor expressed in CHO cells assessed as decrease in insulin-stimulated [3H]-2-deoxyglucose uptake preincubated for 1 hr; type: cell-based
HT-29 = experiment: Antiproliferative activity against human HT-29 cells in presence of 1.5% FCS by BrdU incorporation assay; type: functional, cell-based
KM12 [7] = experiment: Antiproliferative activity against human KM12 cells by BrdU incorporation assay; type: functional
[8] = Oral bioavailability in mouse; type: ADME, organism-based; conditions: in vivo

## O=C(NCc1cccc(O)c1)c1cc2cc(O)ccc2[nH]1
KM12 [1]
  pIC50: 5.38
A549
  pIC50: 4.39
NCI-H460
  pIC50: 4.23

## COc1cc2c(Nc3c(Cl)ccc4c3OCO4)ncnc2cc1OCCCN1CCCCC1
[2]
  pIC50: 6.96
[3]
  pIC50: > 8.40
[4]
  GI50: 87 nM

## O=P(O)(O)C(O)c1ccc2ccccc2c1 (stereo not drawn)
Insulin receptor [5]
  pKi: 4.02
Insulin receptor [6]
  pIC50: 5.00

## O=C(Cc1ccc(-c2ccccc2)cc1)NCc1cccc(F)c1
HT-29
  pIC50: 6.06
KM12 [7]
  GI50: 410 nM

## O=C(NCc1cccc(F)c1)c1cc2cc(F)ccc2[nH]1
NCI-H460
  pIC50: 4.82

## O=C(Cc1ccc(-c2ccc(OCCN3CCOCC3)cc2)cn1)NCc1cccc(F)c1
HT-29
  pIC50: 6.95
[8]
  bioavailability: 64%
